In PubChem BioAssay (NCI):
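How tested: cells in 96-well plates exposed to compound for 48 hours at five concentrations. GI50: concentration for 50% inhibition of growth. The concentration for full growth arrest is given as TGI.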

Legend:
Experiment in all cases: NCI anticancer screen, dose series, 48 h
HCT-15 colon = test system: HCT-15 colon
OVCAR-8 ovarian = test system: OVCAR-8 ovarian
RXF 393 renal = test system: RXF 393 renal
786-0 renal = test system: 786-0 renal
M14 melanoma = test system: M14 melanoma
SK-MEL-2 melanoma = test system: SK-MEL-2 melanoma
A498 renal = test system: A498 renal
SK-MEL-5 melanoma = test system: SK-MEL-5 melanoma
OVCAR-5 ovarian = test system: OVCAR-5 ovarian
HS 578T breast = test system: HS 578T breast
UACC-257 melanoma = test system: UACC-257 melanoma
MDA-MB-435 = test system: MDA-MB-435
NCI-H522 lung = test system: NCI-H522 lung
UO-31 renal = test system: UO-31 renal
MDA-MB-231 breast = test system: MDA-MB-231 breast
NCI-H23 lung = test system: NCI-H23 lung
NCI/ADR-RES ovarian = test system: NCI/ADR-RES ovarian
PC-3 prostate = test system: PC-3 prostate
HCC-2998 colon = test system: HCC-2998 colon
IGROV1 ovarian = test system: IGROV1 ovarian
U251 CNS = test system: U251 CNS
SN12C renal = test system: SN12C renal
HT29 colon = test system: HT29 colon
CCRF-CEM leukemia = test system: CCRF-CEM leukemia
HOP-92 NSCLC = test system: HOP-92 NSCLC
NCI-H226 lung = test system: NCI-H226 lung
KM12 colon = test system: KM12 colon

Structure (SMILES): Oc1ccc(CSc2nnc(-c3ccc(Oc4ccccc4)cc3)o2)c2cccnc12
- GI50 (HCT-15 colon): 0.368 µM
- TGI (HCT-15 colon): > 100 µM
- GI50 (OVCAR-8 ovarian): 0.633 µM
- TGI (OVCAR-8 ovarian): > 100 µM
- GI50 (RXF 393 renal): 3.55 µM
- TGI (RXF 393 renal): > 100 µM
- GI50 (786-0 renal): 1.02 µM
- TGI (786-0 renal): 5.88 µM
- GI50 (M14 melanoma): 0.621 µM
- TGI (M14 melanoma): > 100 µM
- GI50 (SK-MEL-2 melanoma): 3.56 µM
- TGI (SK-MEL-2 melanoma): 90.2 µM
- GI50 (A498 renal): 8.41 µM
- TGI (A498 renal): > 100 µM
- GI50 (SK-MEL-5 melanoma): 1.27 µM
- TGI (SK-MEL-5 melanoma): > 100 µM
- GI50 (OVCAR-5 ovarian): 8.02 µM
- TGI (OVCAR-5 ovarian): > 100 µM
- GI50 (HS 578T breast): 0.612 µM
- TGI (HS 578T breast): 27.4 µM
- GI50 (UACC-257 melanoma): 15.7 µM
- TGI (UACC-257 melanoma): > 100 µM
- GI50 (MDA-MB-435): 0.713 µM
- TGI (MDA-MB-435): > 100 µM
- GI50 (NCI-H522 lung): 4.99 µM
- TGI (NCI-H522 lung): > 100 µM
- GI50 (UO-31 renal): 0.373 µM
- TGI (UO-31 renal): 2.38 µM
- GI50 (MDA-MB-231 breast): 1.49 µM
- TGI (MDA-MB-231 breast): 79.9 µM
- GI50 (NCI-H23 lung): 0.739 µM
- TGI (NCI-H23 lung): 44.9 µM
- GI50 (NCI/ADR-RES ovarian): 0.489 µM
- TGI (NCI/ADR-RES ovarian): 84.6 µM
- GI50 (PC-3 prostate): 0.561 µM
- TGI (PC-3 prostate): > 100 µM
- GI50 (HCC-2998 colon): 1.04 µM
- TGI (HCC-2998 colon): > 100 µM
- GI50 (IGROV1 ovarian): 0.645 µM
- TGI (IGROV1 ovarian): > 100 µM
- GI50 (U251 CNS): 0.46 µM
- TGI (U251 CNS): 2.7 µM
- GI50 (SN12C renal): 2.13 µM
- TGI (SN12C renal): > 100 µM
- GI50 (HT29 colon): > 100 µM
- TGI (HT29 colon): > 100 µM
- GI50 (CCRF-CEM leukemia): 0.498 µM
- TGI (CCRF-CEM leukemia): > 100 µM
- GI50 (HOP-92 NSCLC): 1.41 µM
- TGI (HOP-92 NSCLC): 24.9 µM
- GI50 (NCI-H226 lung): 15.3 µM
- TGI (NCI-H226 lung): > 100 µM
- GI50 (KM12 colon): 2.65 µM
- TGI (KM12 colon): > 100 µM
